According to US7297700B2, “Bicycloheteroaryl compounds as P2X7 modulators and uses thereof” (Renovis, Inc., priority 2005, dated 2007):

What follows are compounds tested on IL-1β release from THP-1 cells (assay: IL-1β Release Assay (Alternate Method), THP-1 cells). Conditions: Homo sapiens, THP-1, read-out: IL-1β % inhibition.
Assay type: cell-based, human
Summary of the method: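 IL-1β release, measured by ELISA, follows 45 min BzATP (250 uM final) stimulation of THP-1 cells given 30 min compound pretreatment. Cells were first primed 16 h with LPS and IFN-γ (100 ng/mL each), then 2 h with fresh LPS; inhibition expressed in percent after background correction.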

Structure (SMILES)	inhibition at 0.3 µM [%]
O=C(CC12CC3CC(CC(C3)C1)C2)Nc1ncnc2c1CCN(CCO)C2 [Compound 18, 2-Adamantan-1-yl-N-[7-(2-hydroxy-ethyl)-5,6,7,8-tetrahydro-pyrido[3,4-d]pyrimidin-4-yl]-acetamide]	0 to 25
O=C(Nc1ncnc2c1CCN(S(=O)(=O)c1ccccc1)C2)C12CC3CC(CC(C3)C1)C2 [Compound 481]	25 to 50

Same assay, conditions: Homo sapiens; at 0.3 μM; THP-1 cells; read-out: IL-1β % inhibition

Structure (SMILES)	inhibition at 0.3 µM [%]
O=C(CC12CC3CC(CC(C3)C1)C2)Nc1ncnc2c1CCN(C(=O)c1ccccc1)C2 [Compound 220]	> 75

Same assay, conditions: at 0.3 μM; THP-1 cells

Structure (SMILES)	IL-1β % inhibition
O=C(CC12CC3CC(CC(C3)C1)C2)Nc1ncnc2c1CCN(Cc1ccc(-c3ccccc3)s1)C2 [Compound 79]	+ (compound exhibited 0-25% inhibition at 0.3 μM)
COc1ccc(CN2CCc3c(ncnc3NC(=O)CC34CC5CC(CC(C5)C3)C4)C2)cc1C [Compound 39]	+ (compound exhibited 0-25% inhibition at 0.3 μM)
CCc1ccc(CN2CCc3c(ncnc3NC(=O)CC34CC5CC(CC(C5)C3)C4)C2)cc1 [Compound 45]	+ (compound exhibited 0-25% inhibition at 0.3 μM)
O=C(CC12CC3CC(CC(C3)C1)C2)Nc1ncnc2c1CCN(Cc1ccnc3ccccc13)C2 [Compound 69]	+ (compound exhibited 0-25% inhibition at 0.3 μM)
COc1ccc(CN2CCc3c(ncnc3NC(=O)CC34CC5CC(CC(C5)C3)C4)C2)c(F)c1 [Compound 95]	++++ (compound exhibited 75% or greater inhibition at 0.3 μM)
O=C(NCC1(O)CCCCCC1)c1ncnc2c1CCN(Cc1ccccc1)C2 [Compound 58]	+ (compound exhibited 0-25% inhibition at 0.3 μM)
O=C(CC12CC3CC(CC(C3)C1)C2)Nc1ncnc2c1CCN(S(=O)(=O)c1ccc(Cl)cc1F)C2 [Compound 202]	++ (compound exhibited 25-50% inhibition at 0.3 μM)
CC(C)(C(=O)Nc1ncnc2c1CCN(S(=O)(=O)Cc1ccccc1)C2)C12CC3CC(CC(C3)C1)C2 [Compound 353]	+ (compound exhibited 0-25% inhibition at 0.3 μM)
O=C(CC12CC3CC(CC(C3)C1)C2)Nc1ncnc2c1CCN(Cc1ccc(Cl)cc1)C2 [Compound 41]	+ (compound exhibited 0-25% inhibition at 0.3 μM)
O=C(CC12CC3CC(CC(C3)C1)C2)Nc1ncnc2c1CCN(C(=O)c1cccc(OC(F)(F)F)c1)C2 [Compound 269]	++ (compound exhibited 25-50% inhibition at 0.3 μM)
COc1ccccc1C(=O)N1CCc2c(ncnc2NC(=O)CC23CC4CC(CC(C4)C2)C3)C1 [Compound 292]	+++ (compound exhibited 50-75% inhibition at 0.3 μM)
COc1cccc(CN2CCc3c(ncnc3C(=O)NCC34CC5CC(CC(C5)C3)C4)C2)c1 [Compound 335]	++ (compound exhibited 25-50% inhibition at 0.3 μM)
O=C(CC12CC3CC(CC(C3)C1)C2)Nc1ncnc2c1CCN(S(=O)(=O)c1ccc(F)c(Cl)c1)C2 [Compound 193]	+ (compound exhibited 0-25% inhibition at 0.3 μM)
O=C(c1cccc(F)c1)N1CCc2c(ncnc2NC(=O)C23CC4CC(CC(C4)C2)C3)C1 [Compound 400]	+ (compound exhibited 0-25% inhibition at 0.3 μM)
O=C(CC12CC3CC(CC(C3)C1)C2)Nc1ncnc2c1CCN(Cc1cccc(C(F)(F)F)c1F)C2 [Compound 131]	+ (compound exhibited 0-25% inhibition at 0.3 μM)
COc1cccc(C(=O)N2CCc3c(ncnc3NC(=O)CC34CC5CC(CC(C5)C3)C4)C2)c1 [Compound 250]	+++ (compound exhibited 50-75% inhibition at 0.3 μM)
COc1ccc(S(=O)(=O)N2CCc3c(ncnc3NC(=O)CC34CC5CC(CC(C5)C3)C4)C2)cc1OC [Compound 151]	+ (compound exhibited 0-25% inhibition at 0.3 μM)
O=C(CC12CC3CC(CC(C3)C1)C2)Nc1ncnc2c1CCN(Cc1ccc(Cl)s1)C2 [Compound 83]	++++ (compound exhibited 75% or greater inhibition at 0.3 μM)
O=C(CC1CCCCCC1)Nc1ncnc2c1CCN(Cc1ccccn1)C2 [Compound 94]	+ (compound exhibited 0-25% inhibition at 0.3 μM)
O=C(c1ccc(F)c(F)c1)N1CCc2c(ncnc2NC(=O)C23CC4CC(CC(C4)C2)C3)C1 [Compound 405]	++ (compound exhibited 25-50% inhibition at 0.3 μM)
O=C(CC12CC3CC(CC(C3)C1)C2)Nc1ncnc2c1CCN(C(=O)C(c1ccccc1)c1ccccc1)C2 [Compound 236]	+++ (compound exhibited 50-75% inhibition at 0.3 μM)
CCc1ccc(C(=O)N2CCc3c(ncnc3NC(=O)CC34CC5CC(CC(C5)C3)C4)C2)cc1 [Compound 229]	+++ (compound exhibited 50-75% inhibition at 0.3 μM)
O=C(CC12CC3CC(CC(C3)C1)C2)Nc1ncnc2c1CCN(C(=O)CCC1CCCC1)C2 [Compound 231]	++ (compound exhibited 25-50% inhibition at 0.3 μM)
O=C(CC12CC3CC(CC(C3)C1)C2)Nc1ncnc2c1CCN(C(=O)c1ccc(Cl)c(Cl)c1)C2 [Compound 245]	+++ (compound exhibited 50-75% inhibition at 0.3 μM)
O=C(NCC1CCCCC1)c1ncnc2c1CCN(Cc1cccnc1)C2 [Compound 48]	+ (compound exhibited 0-25% inhibition at 0.3 μM)
CC(C)(C(=O)Nc1ncnc2c1CCN(C(=O)c1cccc(C(F)(F)F)c1)C2)C12CC3CC(CC(C3)C1)C2 [Compound 359]	+ (compound exhibited 0-25% inhibition at 0.3 μM)
COc1ccccc1CCC(=O)Nc1ncnc2c1CCN(Cc1ccccn1)C2 [Compound 134]	+ (compound exhibited 0-25% inhibition at 0.3 μM)
Cc1cccc(CN2CCc3c(ncnc3NC(=O)CC34CC5CC(CC(C5)C3)C4)C2)n1 [Compound 118]	+ (compound exhibited 0-25% inhibition at 0.3 μM)
COc1ccc(C(=O)N2CCc3c(ncnc3NC(=O)CC34CC5CC(CC(C5)C3)C4)C2)c(OC)c1 [Compound 275]	+++ (compound exhibited 50-75% inhibition at 0.3 μM)
COc1ccccc1CCC(=O)Nc1ncnc2c1CCN(Cc1ccccc1)C2 [Compound 24]	+ (compound exhibited 0-25% inhibition at 0.3 μM)

Same assay, conditions: at 0.3 μM; THP-1 cells, BzATP-stimulated

Structure (SMILES)	IL-1β % inhibition
CCCCCN1CCc2c(ncnc2NC(=O)C23CC4CC(CC(C4)C2)C3)C1 [Compound 558]	++ (compound exhibited 25-50% inhibition at 0.3 μM)
O=C(Nc1ncnc2c1CCN(S(=O)(=O)c1ccc(F)cc1Cl)C2)C12CC3CC(CC(C3)C1)C2 [Compound 545]	++ (compound exhibited 25-50% inhibition at 0.3 μM)
O=C(c1c(F)cccc1Cl)N1CCc2c(ncnc2NC(=O)C23CC4CC(CC(C4)C2)C3)C1 [Compound 444]	+ (compound exhibited 0-25% inhibition at 0.3 μM)
O=C(Nc1ncnc2c1CCN(Cc1ccc(Cl)c(F)c1)C2)C12CC3CC(CC(C3)C1)C2 [Compound 611]	+++ (compound exhibited 50-75% inhibition at 0.3 μM)
COc1cc(OC)cc(C(=O)N2CCc3c(ncnc3NC(=O)C34CC5CC(CC(C5)C3)C4)C2)c1 [Compound 418]	++ (compound exhibited 25-50% inhibition at 0.3 μM)
O=C(Nc1ncnc2c1CCN(S(=O)(=O)c1ccc(F)c(Cl)c1)C2)C12CC3CC(CC(C3)C1)C2 [Compound 526]	++ (compound exhibited 25-50% inhibition at 0.3 μM)
O=C(Nc1ncnc2c1CCN(S(=O)(=O)c1ccc3oc(=O)ccc3c1)C2)C12CC3CC(CC(C3)C1)C2 [Compound 505]	+ (compound exhibited 0-25% inhibition at 0.3 μM)
COc1cc(CN2CCc3c(ncnc3NC(=O)C34CC5CC(CC(C5)C3)C4)C2)ccc1OCc1ccccc1 [Compound 588]	++ (compound exhibited 25-50% inhibition at 0.3 μM)
O=C(Nc1ncnc2c1CCN(Cc1ccc(Cl)c(Cl)c1)C2)C12CC3CC(CC(C3)C1)C2 [Compound 590]	+ (compound exhibited 0-25% inhibition at 0.3 μM)
COc1ccc(CN2CCc3c(ncnc3NC(=O)C34CC5CC(CC(C5)C3)C4)C2)cc1OC [Compound 566]	+ (compound exhibited 0-25% inhibition at 0.3 μM)
O=C(c1cccc(Cl)c1Cl)N1CCc2c(ncnc2NC(=O)C23CC4CC(CC(C4)C2)C3)C1 [Compound 454]	++ (compound exhibited 25-50% inhibition at 0.3 μM)
O=C(Nc1ncnc2c1CCN(Cc1cccc(Br)c1)C2)C12CC3CC(CC(C3)C1)C2 [Compound 614]	+ (compound exhibited 0-25% inhibition at 0.3 μM)
COc1cc(F)c(CN2CCc3c(ncnc3NC(=O)C34CC5CC(CC(C5)C3)C4)C2)cc1OC [Compound 623]	+ (compound exhibited 0-25% inhibition at 0.3 μM)
O=C(Nc1ncnc2c1CCN(Cc1ccc(Br)nc1)C2)C12CC3CC(CC(C3)C1)C2 [Compound 613]	+ (compound exhibited 0-25% inhibition at 0.3 μM)
O=C(Nc1ncnc2c1CCN(Cc1ccc(Br)cc1)C2)C12CC3CC(CC(C3)C1)C2 [Compound 597]	+++ (compound exhibited 50-75% inhibition at 0.3 μM)
O=C(Nc1ncnc2c1CCN(Cc1cccc3c1OCO3)C2)C12CC3CC(CC(C3)C1)C2 [Compound 596]	+++ (compound exhibited 50-75% inhibition at 0.3 μM)
O=C(Nc1ncnc2c1CCN(S(=O)(=O)c1cc(Cl)ccc1F)C2)C12CC3CC(CC(C3)C1)C2 [Compound 539]	++ (compound exhibited 25-50% inhibition at 0.3 μM)
O=C(Nc1ncnc2c1CCN(S(=O)(=O)c1ccc(OC(F)F)cc1)C2)C12CC3CC(CC(C3)C1)C2 [Compound 523]	+ (compound exhibited 0-25% inhibition at 0.3 μM)
O=C(Nc1ncnc2c1CCN(Cc1ccc(OC(F)(F)F)cc1)C2)C12CC3CC(CC(C3)C1)C2 [Compound 620]	++ (compound exhibited 25-50% inhibition at 0.3 μM)
O=C(Cc1ccc(Cl)cc1)N1CCc2c(ncnc2NC(=O)C23CC4CC(CC(C4)C2)C3)C1 [Compound 437]	+ (compound exhibited 0-25% inhibition at 0.3 μM)
CC(CN1CCc2c(ncnc2NC(=O)C23CC4CC(CC(C4)C2)C3)C1)c1ccccc1 (stereo not drawn) [Compound 554]	++++ (compound exhibited 75% or greater inhibition at 0.3 μM)
